Results published in ChEMBL document CHEMBL1201862, “PubChem BioAssay data set” (2004).
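Values below derive from 48-hour exposures of cells grown in 96-well plates, with endpoints linearly interpolated between the two concentrations bracketing the appropriate inhibition level. GI50: concentration for 50% inhibition of growth.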 Activity calls are given as the source filed them. No stated cut-off is given here; in the data, active = GI50 up to about 1.1 µM and inactive = higher.

Legend:
Assay in all cases: DTP human tumour cell line panel, 48 h
SNB-19 = system: SNB-19
NCI-H522 = system: NCI-H522
HT-29 = system: HT-29
M14 = system: M14
SF-539 = system: SF-539
UACC-257 = system: UACC-257
U-251 = system: U-251
COLO 205 = system: COLO 205
Malme-3M = system: Malme-3M
MDA-MB-231 = system: MDA-MB-231
NCI-H23 = system: NCI-H23
OVCAR-8 = system: OVCAR-8
Hs-578T = system: Hs-578T
HL-60 = system: HL-60
OVCAR-5 = system: OVCAR-5
DU-145 = system: DU-145
UO-31 = system: UO-31
SW-620 = system: SW-620
NCI-H226 = system: NCI-H226

| SMILES | GI50 (SNB-19) | GI50 (NCI-H522) | GI50 (HT-29) | GI50 (M14) | GI50 (SF-539) | GI50 (UACC-257) | GI50 (U-251) | GI50 (COLO 205) | GI50 (Malme-3M) | GI50 (MDA-MB-231) | GI50 (NCI-H23) | GI50 (OVCAR-8) | GI50 (Hs-578T) | GI50 (HL-60) | GI50 (OVCAR-5) | GI50 (DU-145) | GI50 (UO-31) | GI50 (SW-620) | GI50 (NCI-H226) |
| --- | --- | --- | --- | --- | --- | --- | --- | --- | --- | --- | --- | --- | --- | --- | --- | --- | --- | --- | --- |
| COc1ccc(-n2c3c(c4cc(O)ccc42)C(=O)c2ccccc2C3=O)cc1 | 6.65 µM (inactive) | 16.6 µM (inactive) | 3.94 µM (inactive) | > 100 µM (inactive) | 1.05 µM (active) | > 100 µM (inactive) | 0.931 µM (active) | 80.5 µM (inactive) | 36.2 µM (inactive) | 2 µM (inactive) | 8.97 µM (inactive) | 2.52 µM (inactive) | 7.24 µM (inactive) | 15 µM (inactive) | 6.04 µM (inactive) | 19.1 µM (inactive) | 14.7 µM (inactive) | > 100 µM (inactive) |  |
| CCc1nc(N)nc(N)c1-c1ccc(Cl)c(/N=N/N(C)C)c1 | 44.4 µM (inactive) | 27.7 µM (inactive) | 18.7 µM (inactive) | 22.5 µM (inactive) | 23.1 µM (inactive) | 29.4 µM (inactive) | 34.5 µM (inactive) | 24.1 µM (inactive) |  | 48.8 µM (inactive) | 27.4 µM (inactive) | 40.5 µM (inactive) | 30.3 µM (inactive) | 20.8 µM (inactive) | > 82 µM (inactive) | 55.7 µM (inactive) | 18.4 µM (inactive) | 27.4 µM (inactive) | 59.6 µM (inactive) |
| Cc1cn(CC(=S)NCCc2c[nH]c3ccccc23)c(=O)[nH]c1=O | > 100 µM (inactive) |  | 31.4 µM (inactive) | > 100 µM (inactive) | > 100 µM (inactive) |  | > 100 µM (inactive) | > 100 µM (inactive) | 69.5 µM (inactive) | > 100 µM (inactive) | 59.3 µM (inactive) |  | 84.1 µM (inactive) | 56.8 µM (inactive) | 33 µM (inactive) | > 100 µM (inactive) | 87.1 µM (inactive) | > 100 µM (inactive) | 33.5 µM (inactive) |
| O=C1c2cccc([N+](=O)[O-])c2C(=O)N1Cc1ccccc1 | > 100 µM (inactive) | > 100 µM (inactive) | > 100 µM (inactive) | > 100 µM (inactive) | > 100 µM (inactive) | > 100 µM (inactive) | > 100 µM (inactive) | > 100 µM (inactive) |  | > 100 µM (inactive) | > 100 µM (inactive) | > 100 µM (inactive) | > 100 µM (inactive) | > 100 µM (inactive) | > 100 µM (inactive) | > 100 µM (inactive) | > 100 µM (inactive) | > 100 µM (inactive) | > 100 µM (inactive) |
| CCNCC(O)c1ccc(N)c([N+](=O)[O-])c1 (stereo not given) | > 100 µM (inactive) | > 100 µM (inactive) | > 100 µM (inactive) | > 100 µM (inactive) | > 100 µM (inactive) | > 100 µM (inactive) | > 100 µM (inactive) | > 100 µM (inactive) |  | > 100 µM (inactive) | > 100 µM (inactive) | > 100 µM (inactive) | > 100 µM (inactive) | > 100 µM (inactive) | > 100 µM (inactive) | > 100 µM (inactive) | > 100 µM (inactive) | > 100 µM (inactive) | > 100 µM (inactive) |
| CN(C)CCCNC(=O)c1c(O)c2ccccc2n(C)c1=O |  | 61.8 µM (inactive) | 55.6 µM (inactive) |  | 78.3 µM (inactive) | 67.5 µM (inactive) | 39.5 µM (inactive) | 39.5 µM (inactive) | 72.4 µM (inactive) | 86.5 µM (inactive) | > 100 µM (inactive) | 49.4 µM (inactive) | > 100 µM (inactive) | 36.5 µM (inactive) | 63 µM (inactive) | > 100 µM (inactive) | 9.27 µM (inactive) | 54 µM (inactive) | 67 µM (inactive) |
| Nc1ncc(C=O)c(NCC2(CO)CCC2)n1 |  | 35.6 µM (inactive) | 64 µM (inactive) |  | 39.7 µM (inactive) | > 100 µM (inactive) | 35.6 µM (inactive) | 28.4 µM (inactive) | 77.4 µM (inactive) | 45.8 µM (inactive) | 33.5 µM (inactive) | 51.1 µM (inactive) | 41.1 µM (inactive) | 13 µM (inactive) | 44.8 µM (inactive) | 33 µM (inactive) | 27.5 µM (inactive) | 89.9 µM (inactive) | 27.7 µM (inactive) |
| COc1ccc(Nc2nc3ccccc3n3cccc23)cc1OC | 33.7 µM (inactive) | 16 µM (inactive) | 7.74 µM (inactive) | 15.8 µM (inactive) | 16.6 µM (inactive) | 16 µM (inactive) | 16.9 µM (inactive) | 14.4 µM (inactive) | 18.9 µM (inactive) | 15.3 µM (inactive) | 14.8 µM (inactive) | 15.9 µM (inactive) | 37.9 µM (inactive) | 0.0528 µM (active) | 32.7 µM (inactive) | 17.1 µM (inactive) | 19.5 µM (inactive) | 16.2 µM (inactive) |  |
